The values that follow come from US5276120A, “Process for forming omega-deuxy-azasugars” (The Scripps Research Institute, priority 1992, dated 1994).

For experiment [1], the system named is AIDS virus gp160 envelope protein precursor. As to conditions: Walker et al., Proc. Natl. Acad. Sci. 1987, 84, 8120; cited from earlier work.
Another experiment has as its target α-L-Fucosidase. In words: α-L-Fucosidase inhibition, hydrolysis of p-nitrophenyl-α-L-fucoside. It counts as biochemical. Conditions: for Type of fucosidase inhibition: versus fuc-pNP. The procedure:
α-L-Fucosidase activity was measured by incubating the enzyme (0.005 Units) with fuc-pNP ([…]) in 0.4 ml of 50 mM acetate buffer, pH 5.5 for 20 minutes at 25° C. in the absence and presence of the azasugars of the present invention. The reaction was stopped by the addition of 0.8 ml of 2 Mm glycine buffer, pH 10.5. The amount of formed p-nitrophenol was determined by optical density spectroscopy at a wavelength of 400 nm.

In another experiment the target is T1, α-Glucosidase (BY) (Saccharomyces cerevisiae, UniProt P07265).
T1 construct: purchased Sigma
In words: Glycosidase inhibition, α-glucosidase from brewers yeast. It counts as biochemical. From the text: (§1) Materials: All of the buffers, enzymes, and substrates were purchased from Sigma and used as received. These included piperazine-N,N'-bis(2-ethanesulfonic acid) (PIPES), sodium acetate (NaOAc), ethylenediaminetetraacetic acid (EDTA), β-D-glucosidase (from sweet almond), p-nitrophenyl β-D-glucoside, α-D-glucosidase, p-nitrophenyl α-D-glucoside, β-N-acetyl-D-glucosaminedase, p-nitrophenyl β-N-acetyl-D-glucosaminide, α-D-mannosidase, and p-nitrophenyl α-D-mannoside.
b) PIPES-NaOAc buffer (0.01M PIPES, 0.2M NaOAc and 0.01 mM EDTA, pH 6.5). This buffer was prepared according to the literature procedure [Dale et al., Biochemistry 1985, 24, 3530].
d) α-D-Glucosidase: 1.5 mg of solid protein (70 units/mg) were dissolved in 1 mL PIPES-NaOAc buffer solution and used for assays without further dilution.
g) Substrate solutions: all substrates were dissolved in the corresponding buffer solution for enzymatic assay.
(§2) For each inhibitor, five inhibitor concentrations, ranging from zero to three times Ki, were generally used to determine the Ki value. […] The amount of enzyme added in each assay was adjusted so that less than 10 percent of the substrate, with its lowest substrate concentration, would be consumed within 45 seconds. Since all of the substrates have p-nitrophenol as leaving group, the assays were monitored at 400 nanometers (nm), where the molecular extinction coefficient, ε, was calibrated to be 3204.5M^-1 cm^-1 at pH 6.5. The following illustrates the detailed procedure.
To a 1 mL disposable cuvette were added […] (μL) of the NaOAc-PIPES buffer solution, 20 μL of the inhibitor solution and 20 μL of the p-nitrophenyl β-D-glucoside solution (100 Mm in PIPES-NaoAc buffer, PH 6.5). The solution was well mixed and 20 μL of the β-D-glucosidase solution were injected into the cuvette to start the reaction. The reaction was monitored at 400 nm on a Beckman DU-70 photospectrometer for 45 seconds and the initial hydrolysis rate was calculated. The same procedure was repeated with five other substrate concentrations. After all the initial rates were accumulated, the corresponding Lineweaver-Burk plot at that inhibitor concentration was constructed.
PIPES-NaOAc buffer was used for all the enzymes except β-N-acetyl-D-glucosaminedase, for which PIPES buffer was used.

Experiment [2] has as its target T2, α-Glucosidase Type I (calf liver) (Bos taurus, UniProt A0A3Q1M9D9).
T2 construct: host or cells: calf liver
T2 sequence (A0A3Q1M9D9 1-839): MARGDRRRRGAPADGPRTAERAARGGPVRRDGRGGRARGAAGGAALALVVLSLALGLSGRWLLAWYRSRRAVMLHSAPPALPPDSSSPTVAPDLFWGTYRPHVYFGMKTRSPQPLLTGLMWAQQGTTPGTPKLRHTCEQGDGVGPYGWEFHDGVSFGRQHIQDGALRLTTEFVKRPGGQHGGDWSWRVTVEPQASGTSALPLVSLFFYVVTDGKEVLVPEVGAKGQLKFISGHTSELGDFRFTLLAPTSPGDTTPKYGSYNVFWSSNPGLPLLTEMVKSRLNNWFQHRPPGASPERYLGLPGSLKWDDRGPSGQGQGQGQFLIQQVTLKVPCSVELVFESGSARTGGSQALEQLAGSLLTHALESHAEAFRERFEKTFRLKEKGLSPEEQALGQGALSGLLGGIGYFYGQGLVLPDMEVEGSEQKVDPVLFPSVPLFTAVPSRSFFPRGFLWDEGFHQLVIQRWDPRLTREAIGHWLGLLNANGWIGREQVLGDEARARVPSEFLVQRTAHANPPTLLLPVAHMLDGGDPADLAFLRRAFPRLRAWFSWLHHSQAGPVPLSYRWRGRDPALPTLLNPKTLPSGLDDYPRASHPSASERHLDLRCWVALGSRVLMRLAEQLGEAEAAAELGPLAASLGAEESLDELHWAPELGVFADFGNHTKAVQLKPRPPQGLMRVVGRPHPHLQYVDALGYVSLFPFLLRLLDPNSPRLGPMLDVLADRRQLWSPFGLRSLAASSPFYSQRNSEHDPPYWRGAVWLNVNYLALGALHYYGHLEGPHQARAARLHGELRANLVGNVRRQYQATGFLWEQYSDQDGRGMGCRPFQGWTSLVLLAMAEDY
Kind of experiment: Glycosidase inhibition, α-glucosidase Type I (calf liver). It is filed as biochemical. As to conditions: footnote not given.

The subject of the next experiment is β-Glucosidase (SA). Kind of experiment: Glycosidase inhibition, β-glucosidase from sweet almond. It counts as biochemical. As to conditions: kinetic analysis.
From the text: as §1
b) PIPES-NaOAc buffer (0.01M PIPES, 0.2M NaOAc and 0.01 mM EDTA, pH 6.5). This buffer was prepared according to the literature procedure [Dale et al., Biochemistry 1985, 24, 3530]. […]
For each inhibitor, five inhibitor concentrations, ranging from zero to three times Ki, were generally used to determine the Ki value. […] Since all of the substrates have p-nitrophenol as leaving group, the assays were monitored at 400 nanometers (nm), where the molecular extinction coefficient, ε, was calibrated to be 3204.5M^-1 cm^-1 at pH 6.5. […]
To a 1 mL disposable cuvette were added 950 microliters (μL) of the NaOAc-PIPES buffer solution, 20 μL of the inhibitor solution and 20 μL of the p-nitrophenyl β-D-glucoside solution (100 Mm in PIPES-NaoAc buffer, PH 6.5). […] The reaction was monitored at 400 nm on a Beckman DU-70 photospectrometer for 45 seconds and the initial hydrolysis rate was calculated. […]

Experiment [3] deals with β-D-Galactosidase (jack bean). In words: Glycosidase inhibition, β-D-galactosidase (jack bean). It is filed as biochemical. As to conditions: 10 mM inhibitor in the assay.
From the text: as §2

[4] abbreviates: fuc-pNP substrate, 50 mM acetate buffer, pH 5.5, 25° C., read-out: Ki (mM), α-L-Fucosidase Inhibition (Table 2).
Where [5] appears, read: pH 6.5, p-nitrophenyl α-D-glucoside, Lineweaver-Burk, read-out: Ki (M), α-Glucosidase (BY).

Where two headings read alike, the source gives them in different places.

T1 sequence (P07265 whole entry): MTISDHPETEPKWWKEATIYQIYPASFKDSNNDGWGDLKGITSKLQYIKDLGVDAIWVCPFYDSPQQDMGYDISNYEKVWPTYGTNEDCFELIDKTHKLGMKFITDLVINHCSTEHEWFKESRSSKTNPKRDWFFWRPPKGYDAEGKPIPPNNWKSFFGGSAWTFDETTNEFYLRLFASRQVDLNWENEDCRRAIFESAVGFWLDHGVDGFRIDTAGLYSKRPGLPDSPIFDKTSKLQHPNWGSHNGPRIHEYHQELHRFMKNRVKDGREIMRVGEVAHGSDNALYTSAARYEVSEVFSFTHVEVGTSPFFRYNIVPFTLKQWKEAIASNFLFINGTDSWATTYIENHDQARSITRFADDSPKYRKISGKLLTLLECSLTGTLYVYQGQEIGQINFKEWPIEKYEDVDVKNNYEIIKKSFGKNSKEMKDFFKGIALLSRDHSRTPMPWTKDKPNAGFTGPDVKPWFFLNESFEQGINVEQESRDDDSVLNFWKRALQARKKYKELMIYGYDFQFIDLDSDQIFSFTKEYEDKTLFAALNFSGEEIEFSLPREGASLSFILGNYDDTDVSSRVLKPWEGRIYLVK

`OC1CN2CCC(O)C2C(O)C1O` (stereo not shown) [castanospermine, 1,6,7,8-tetrahydroxyoctahydroindolizine]: the “Effect on processing of AIDS virus gp160 envelope protein precursor” value in experiment [1] is on record as “inhibit the processing of the AIDS virus gp160 envelope protein precursor”.
As for `OCC1NCC(O)C(O)C1O` [Compound 124, D-1-deoxytalonojirimycin], the Ki at α-L-Fucosidase (setting [4]) amounted to 0.05 ± 0.006 mM.
As for `C[C@@H]1[C@@H](O)[C@H](O)[C@@H](O)CN1C` [Compound 17, N-Methyl-1,5,6-trideoxy-1,5-imino-D-glucitol], the Ki at α-Glucosidase (BY) (setting [5]) is 0.00178 M.
For `OC[C@H]1NC[C@@H](O)[C@@H](O)[C@@H]1O` [D-1-deoxymannojirimycin, 1,5-dideoxy-1,5-imino-D-mannitol], the Ki at α-L-Fucosidase (setting [4]) turned out to be 0.03 ± 0.01 mM.
In the case of `C[C@H]1NC[C@H](O)[C@@H](O)[C@@H]1O` [Compound 3c, 1,5,6-Trideoxy-1,5-imino-D-glucitol], the Ki on α-Glucosidase (BY) came out at 0.00156 M.
Regarding `C[C@@H]1OC(O)[C@@H](O)[C@H](O)[C@@H]1O` (stereo partly drawn) [L-Fucose], the Ki on α-L-Fucosidase (competitive inhibitor versus fuc-pNP, read-out: Ki versus fuc-pNP) worked out at 0.3 ± 0.01 mM; on α-L-Fucosidase (setting [4]), 0.3 ± 0.1 mM. Besides, the “Type of fucosidase inhibition” value with α-L-Fucosidase is recorded as “competitive inhibitor”.
Take `CN1CC(O)C(O)C(O)C1CO` (stereo not shown) [Compound 19, N-methyl 1-deoxynojirimycin]: the Ki in experiment [2] came to 0.07 µM; on α-Glucosidase (BY) it was 0.000369 M.
For the molecule `Oc1ccccc1` [phenol], on α-L-Fucosidase (noncompetitive inhibitor, analog of p-nitrophenol, read-out: Kis), the Ki was 0.18 ± 0.02 mM. In addition, the “Type of fucosidase inhibition” value with α-L-Fucosidase is recorded as “noncompetitive inhibitor”.
For the molecule `CC1C(O)C(O)C(O)C[N+]1(C)[O-]` [Compound 18, N-Methyl-1,5,6-trideoxy-1,5-imino-D-glucitol oxide], in the experiment with β-Glucosidase (SA), the “Potency relative to Compound 17, β-glucosidase from sweet almond” value is “less potent inhibitor than Compound 17”. Moreover, the Ki on α-Glucosidase (BY) (setting [5]) amounted to 0.00695 M.
`OCC1NCC(O)C(O)C1O` (stereo not shown) [Compound 23, 1-deoxynojirimycin] came in with a Ki on α-Glucosidase (BY) of 8.67e-06 M. Further, the “Inhibition of β-D-Galactosidase (jack bean)” value in experiment [3] is reported as “No inhibition”.
